The values below come from patent US7736624B2, “Methods and compositions for diagnostic and therapeutic targeting of COX-2” (priority 2006, dated 2010).

Like-named read-outs stand apart in the source and are kept apart here. A value given as a limit tells only on which side of the number the result lay.

The target of one experiment is T1, COX-2 (Homo sapiens, UniProt P35354).
T1 sequence (P35354 18-604): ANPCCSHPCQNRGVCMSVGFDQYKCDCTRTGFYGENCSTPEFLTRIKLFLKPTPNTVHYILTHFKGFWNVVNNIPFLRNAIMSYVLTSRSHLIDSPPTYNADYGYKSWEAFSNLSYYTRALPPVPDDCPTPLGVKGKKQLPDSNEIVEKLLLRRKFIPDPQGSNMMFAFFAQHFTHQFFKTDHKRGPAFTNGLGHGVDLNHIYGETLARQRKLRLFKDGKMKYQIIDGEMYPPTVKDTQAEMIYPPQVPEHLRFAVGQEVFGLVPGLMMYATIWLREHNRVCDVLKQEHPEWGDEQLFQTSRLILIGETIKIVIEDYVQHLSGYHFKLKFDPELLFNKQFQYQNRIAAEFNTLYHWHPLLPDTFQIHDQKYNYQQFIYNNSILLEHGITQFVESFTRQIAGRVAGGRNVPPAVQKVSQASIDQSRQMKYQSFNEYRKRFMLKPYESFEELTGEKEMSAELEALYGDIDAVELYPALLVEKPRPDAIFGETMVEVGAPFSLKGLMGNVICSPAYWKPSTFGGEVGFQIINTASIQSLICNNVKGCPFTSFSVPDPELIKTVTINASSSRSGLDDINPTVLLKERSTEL
Kind of experiment: IC50 determinations using purified enzymes (TLC assay), COX-2. Also noted: made in house; host or cells: Sf9 insect cells. In kind it is biochemical. From the text:
(§1) Those skilled in the art will appreciate that an evaluation of the selectivity and efficacy of binding of the NSAID derivative to the COX-2 enzyme, e.g., after the derivative is synthesized, can be desirable. […] One example of an in vitro screening method takes advantage of the fact that both human and murine recombinant COX-2 can be expressed and isolated in pure form from an Sf9 cell expression system. […] Alternatively, membrane preparations from outdated human platelets can provide a source of human COX-1. […] The reaction is stopped by the addition of ethanol/methanol/1 M citrate, pH 4.0 (30:4:1). The extracted products are separated by thin layer chromatography (TLC), which allows quantitation of total product formation as well as assessment of product distribution. This assay is useful to define IC50 values for inhibition of either enzyme, and to determine time-dependency of inhibition. It also provides information concerning changes in products formed as a result of inhibition.
(§2) Reactions were terminated by solvent extraction in Et2O/CH3OH/1 M citrate, pH 4.0 (30:4:1). The phases were separated by centrifugation at 2000 g for 5 minutes and the organic phase was spotted on a 20×20 cm TLC plate (Lieselgel 60, EMD Chemicals, Inc., Gibbstown, N.J., United States of America). The plate was developed in EtOAc/CH2Cl2/glacial AcOH (75:25:1) at 4° C. Radiolabeled prostanoid products were quantitatively determined with a radioactivity scanner available from Bioscan, Inc. (Washington, D.C., United States of America). The percentage of total products observed at different concentrations of the presently disclosed compositions was divided by the percentage of products observed for protein samples preincubated for the same amount of time with DMSO.

Another experiment deals with T2, ovine COX-1 (Ovis aries, UniProt P05979).
T2 construct: can be purified from ovine seminal vesicles by standard procedures; from tissue; host or cells: ovine seminal vesicles
T2 sequence (P05979 25-600): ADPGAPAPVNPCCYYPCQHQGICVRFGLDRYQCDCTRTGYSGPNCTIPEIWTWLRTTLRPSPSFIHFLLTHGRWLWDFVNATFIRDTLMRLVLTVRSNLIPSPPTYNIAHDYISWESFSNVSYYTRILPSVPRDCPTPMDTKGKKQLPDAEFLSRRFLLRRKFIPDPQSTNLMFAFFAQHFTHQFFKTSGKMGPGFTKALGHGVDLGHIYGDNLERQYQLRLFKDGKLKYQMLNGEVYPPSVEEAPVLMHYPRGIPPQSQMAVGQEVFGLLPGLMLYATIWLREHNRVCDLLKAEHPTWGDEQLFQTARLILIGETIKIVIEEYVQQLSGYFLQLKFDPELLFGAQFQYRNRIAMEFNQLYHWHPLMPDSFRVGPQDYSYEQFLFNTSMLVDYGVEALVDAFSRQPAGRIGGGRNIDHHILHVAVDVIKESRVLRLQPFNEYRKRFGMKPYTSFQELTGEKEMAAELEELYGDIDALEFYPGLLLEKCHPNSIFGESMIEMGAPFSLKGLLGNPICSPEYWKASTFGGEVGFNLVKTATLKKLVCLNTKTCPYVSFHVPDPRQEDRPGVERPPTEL
Kind of experiment: IC50 determinations using purified enzymes (TLC assay), COX-1. In kind it is biochemical. Particulars: assayed against purified enzymes.
Text: as §1, §2

[1] abbreviates: Table 3, assayed against purified enzymes, read-out: IC50 COX-2.
The mark [2] stands for this setting: Table 2, assayed against purified enzymes, read-out: IC50 COX-2.
Where [3] appears, read: purified enzyme, read-out: COX-2 IC50.

As to `COc1ccc2c(c1)c(CC(=O)N1CCNCC1)c(C)n2C(=O)c1ccc(Cl)cc1` [Compound 27ddd], the IC50 at COX-2 (setting [1]) was > 25 µM; against ovine COX-1 (Table 3), 1.8 µM.
For `COc1ccc2c(c1)c(CC(=O)NCCCCNC(=O)c1ccc(C(=O)[O-])c(-c3c4ccc(=[N+](C)C)cc-4oc4cc(N(C)C)ccc34)c1)c(C)n2C(=O)c1ccc(Cl)cc1` [Compound 27xx], the IC50 on COX-2 (setting [1]) and against ovine COX-1 (Table 3) was > 25 µM each time.
Take `CCN(CC)c1ccc2cc(C(=O)NCCCNC(=O)Cc3c(C)n(C(=O)c4ccc(Cl)cc4)c4ccc(OC)cc34)c(=O)oc2c1` [Compound 27gg]: the results for the IC50 on COX-2 (setting [1]) and at ovine COX-1 (Table 3) were 0.053 µM and > 25 µM, respectively.
With `CCN1C(=CC=CC=CC2=[N+](CCCCS(=O)(=O)[O-])c3ccc4ccccc4c3C2(C)C)C(C)(C)c2cc(CC(=O)NCCCCNC(=O)Cc3c(C)n(C(=O)c4ccc(Cl)cc4)c4ccc(OC)cc34)ccc21` [Compound 27qqq], the IC50 was 0.5 µM on COX-2 (setting [1]) and > 25 µM against ovine COX-1 (Table 3).
Regarding `CC[N+](CC)=c1ccc2nc3c(cc(NC(=O)CCc4cc(-c5ccc(C)cc5)n(-c5ccc(S(C)(=O)=O)cc5)n4)c4ccccc43)oc-2c1` [Compound 29g], the IC50 on COX-2 (setting [1]) and at ovine COX-1 (Table 3) was > 25 µM each time.
For `CCCCNC(=O)Cc1c(C)n(C(=O)c2ccc(Cl)cc2)c2ccc(OC)cc12` [Compound 27nnn], the IC50 on COX-2 (setting [1]) and against ovine COX-1 (Table 3) was > 25 µM throughout.
Take `COc1ccc2c(c1)c(CC(=O)NCCCNC(=O)c1ccc(C(=O)[O-])c(C3=c4cc5c6c(c4Oc4c3cc3c7c4CCCN7CCC3)CCC[N+]=6CCC5)c1)c(C)n2C(=O)c1ccc(Cl)cc1` [Compound 27yy]: the IC50 on COX-2 (setting [1]) and against ovine COX-1 (Table 3) was > 25 µM each time.
On to `COc1ccc2c(c1)c(CC(=O)NCCCN1CCN(CCCNC(=O)c3ccc(C(=O)[O-])c(C4=c5cc6c7c(c5Oc5c4cc4c8c5CCCN8CCC4)CCC[N+]=7CCC6)c3)CC1)c(C)n2C(=O)c1ccc(Cl)cc1` [Compound 27bbb], for which the IC50 at COX-2 (setting [1]) and on ovine COX-1 (Table 3) was > 25 µM throughout.
As for `COc1ccc2c(c1)c(CCNC(=O)c1cc3ccccc3oc1=O)c(C)n2Cc1ccc(Br)cc1` [Compound 28b], the IC50 on COX-2 (setting [1]) and at ovine COX-1 (Table 3) was > 25 µM each time.
For the molecule `CCN(CC)c1ccc2c(-c3ccc(S(=O)(=O)NCCCCNC(=O)Cc4c(C)n(C(=O)c5ccc(Cl)cc5)c5ccc(OC)cc45)cc3S(=O)(=O)[O-])c3ccc(=[N+](CC)CC)cc-3oc2c1` [Compound 27lll], the IC50 at COX-2 (setting [1]) and against ovine COX-1 (Table 3) was > 25 µM in each case.
As to `Cc1ccc(-c2cc(CCC(=O)NCCN)nn2-c2ccc(S(C)(=O)=O)cc2)cc1` [Compound 29f], the concentration for half-maximal inhibition (IC50) at COX-2 (setting [2]) and on ovine COX-1 (Table 2) was > 25 µM in each case.
As to `CCN(CC)c1ccc2cc(C(=O)NCCCCNC(=O)Cc3c(C)n(C(=O)c4ccc(Cl)cc4)c4ccc(OC)cc34)c(=O)oc2c1` [Compound 27ff], the results for the IC50 on COX-2 (setting [1]) and at ovine COX-1 (Table 3) were 0.031 µM and > 25 µM, respectively.
On to `COSc1ccc(-n2nc(C(=O)OC)cc2-c2ccc(C)cc2)cc1` [Compound 29c], for which the IC50 at COX-2 (setting [2]) and against ovine COX-1 (Table 2) was > 25 µM throughout.
Take `COc1ccc2c(c1)c(CC(=O)N1CCN(C(=O)c3ccc(C(=O)O)c(-c4c5ccc(=O)cc-5oc5cc(O)ccc45)c3)CC1)c(C)n2C(=O)c1ccc(Cl)cc1` [Compound 27tt]: the IC50 on COX-2 (setting [1]) and on ovine COX-1 (Table 3) was > 25 µM in each case.
For `COc1ccc2c(c1)c(CC(=O)NCCNC(=O)/C=C(C)/C=C/C=C(C)/C=C/C1=C(C)CCCC1(C)C)c(C)n2C(=O)c1ccc(Cl)cc1` [Compound 27h], the IC50 is 0.107 µM at COX-2 (setting [3]) and > 4 µM against ovine COX-1 (Table 1).
On to `Cc1ccc(C(=O)N2CCN(C(=O)c3ccc(C4=c5cc6c7c(c5Oc5c4cc4c8c5CCCN8CCC4)CCC[N+]=7CCC6)c(C(=O)[O-])c3)CC2)cc1` [Compound 32], for which the IC50 at COX-2 (setting [1]) and against ovine COX-1 (Table 3) was > 25 µM in each case.
Consider `Cc1ccc(-c2cc(C(=O)O)nn2-c2ccc(S(N)(=O)=O)cc2)cc1` [Compound 30d], for which the IC50 on COX-2 (setting [2]) and against ovine COX-1 (Table 2) was > 25 µM in each case.
In the case of `COc1ccc2c(c1)c(CC(=O)NCCNC(=O)/C=C(C)/C=C/C=C(C)\C=C\C1=C(C)CCCC1(C)C)c(C)n2C(=O)c1ccc(Cl)cc1` [Compound 27s], the values for the IC50 on COX-2 (setting [2]) and against ovine COX-1 (Table 2) were 0.388 µM and > 25 µM, respectively.
`COc1ccc2c(c1)c(CC(=O)NCCCNC(=S)Nc1ccc(-c3c4ccc(=O)cc-4oc4cc(O)ccc34)c(C(=O)O)c1)c(C)n2C(=O)c1ccc(Cl)cc1` [Compound 27kk]: the IC50 on COX-2 (setting [1]) and at ovine COX-1 (Table 3) was > 25 µM each time.
In the case of `Cc1ccc(-c2cc(C(=O)O)nn2-c2ccc(S(C)(=O)=O)cc2)cc1` [Compound 29d], the IC50 on COX-2 (setting [2]) and against ovine COX-1 (Table 2) was > 25 µM in each case.
Turning to `COc1ccc2c(c1)c(CC(=O)NCCCCOC(=O)CCC(=O)O[C@H]1c3cc4c(cc3[C@@H](c3cc(OC)c(OC)c(OC)c3)[C@H]3C(=O)OC[C@@H]31)OCO4)c(C)n2C(=O)c1ccc(Cl)cc1` [Compound 27p], the IC50 at COX-2 (setting [3]) is 0.147 µM; against ovine COX-1 (Table 1) it was > 4 µM.
In the case of `COc1ccc2c(c1)c(CC(=O)N1CCN(C(=O)c3ccc(C4=c5cc6c7c(c5Oc5c4cc4c8c5CCCN8CCC4)CCC[N+]=7CCC6)c(C(=O)[O-])c3)CC1)c(C)n2C(=O)c1ccc(Cl)cc1` [Compound 27hhh], the figures for the IC50 at COX-2 (setting [1]) and at ovine COX-1 (Table 3) were 1.3 µM and 5.8 µM, respectively.
In the same order, the values of `Cc1ccc(-c2cc(CCC(=O)NCCNC(=O)c3ccc(C(=O)[O-])c(C4=c5cc6c7c(c5Oc5c4cc4c8c5CCCN8CCC4)CCC[N+]=7CCC6)c3)nn2-c2ccc(S(C)(=O)=O)cc2)cc1` [Compound 29h] are > 25 µM and > 25 µM.
Regarding `COc1ccc2c(c1)c(CC(=O)NCCCCCNC(=O)c1ccc(C(=O)[O-])c(C3=c4cc5c6c(c4Oc4c3cc3c7c4CCCN7CCC3)CCC[N+]=6CCC5)c1)c(C)n2C(=O)c1ccc(Cl)cc1` [Compound 27zz], the IC50 on COX-2 (setting [1]) and at ovine COX-1 (Table 3) was > 25 µM each time.
As to `COc1ccc2c(c1)c(CC(=O)NCCCCNC(=O)c1ccc(C(=O)O)c(-c3c4cc(F)c(=O)cc-4oc4cc(O)c(F)cc34)c1)c(C)n2C(=O)c1ccc(Cl)cc1` [Compound 27mm], the IC50 was found to be 3.2 µM on COX-2 (setting [1]) and 22.5 µM on ovine COX-1 (Table 3).
In the same order, the values of `COc1ccc2c(c1)c(CC(=O)NCCCCNC(=O)CCCCCNC(=O)c1ccc(-c3c4ccc(=O)cc-4oc4cc(O)ccc34)c(C(=O)O)c1)c(C)n2C(=O)c1ccc(Cl)cc1` [Compound 27oo] are > 25 µM and > 25 µM.
`COc1ccc2c(c1)c(CC(=O)N1CCN(C(=O)c3ccc(C(=O)[O-])c(C4=c5cc6c7c(c5Oc5c4cc4c8c5CCCN8CCC4)CCC[N+]=7CCC6)c3)CC1)c(C)n2C(=O)c1ccc(Cl)cc1` [Compound 27fff]: the IC50 on COX-2 (setting [1]) and at ovine COX-1 (Table 3) was > 25 µM throughout.
For the molecule `COC(=O)c1cc(-c2ccc(C)cc2)n(-c2ccc(S(C)(=O)=O)cc2)n1` [Compound 29b], the IC50 is 2.8 µM on COX-2 (setting [2]) and > 25 µM on ovine COX-1 (Table 2).

Broadly, the IC50 is the point on the concentration scale where inhibition reaches its midpoint.
